Results on 4 compounds are retold here after article PMC3958311 (EMBO Molecular Medicine, 2014).

One test deals with M. tuberculosis H37Rv. As to conditions: stated in the Introduction; ref Makarov et al, 2009; cited from earlier work.
The next test relates to M. tuberculosis NTB1. The test is classed as cell-based, Mycobacterium tuberculosis.

≈ marks a conversion by molar mass, not a printed value. Where “and” joins values, the source holds several entries; their conditions need not be identical. Identical values can stand only once. Bounds are passed on as bounds.

For orientation: MIC means the smallest concentration in the dilution series that meets the test's criterion for growth inhibition. The MIC99 is an inhibitory concentration at the 99% level, which refers to growth in some studies and to a panel of isolates in others. Turning to `C[C@H]1COC2(CCN(c3nc(=O)c4cc(C(F)(F)F)cc([N+](=O)[O-])c4s3)CC2)O1` [BTZ043, 2-[(2S)-2-methyl-1,4-dioxa-8-azaspiro[4.5]dec-8-yl]-8-nitro-6-(trifluoromethyl)-4H-1,3-benzothia-zin-4-one], the MIC in the test on M. tuberculosis H37Rv is 1 ng/ml and 2.3 nM. In the test with M. tuberculosis NTB1, the MIC99 was determined as 25 mg/L (≈ 58 µM) and the “fold increased resistance conferred by the Cys387Ser mutation in DprE1” value was > 10 000 fold.
On to `O=c1nc(N2CCN(CC3CCCCC3)CC2)sc2c([N+](=O)[O-])cc(C(F)(F)F)cc12` [PBTZ169], for which, in the test on M. tuberculosis NTB1, the MIC99 is over 100 mg/L and the “fold increased resistance conferred by the Cys387Ser mutation in DprE1” value is > 10 000 fold.
In the test on M. tuberculosis NTB1, `CO[C@H]1/C=C/O[C@@]2(C)Oc3c(C)c(O)c4c(O)c(c(/C=N/N5CCN(C)CC5)c(O)c4c3C2=O)NC(=O)/C(C)=C\C=C\[C@H](C)[C@H](O)[C@@H](C)[C@@H](O)[C@@H](C)[C@H](OC(C)=O)[C@@H]1C` [RIF, rifampicin] came in with an MIC99 of 0.001 mg/L (≈ 0.00122 µM).
In turn, moxifloxicin [MXF] gave an MIC99 against M. tuberculosis NTB1 of 0.03 mg/L.
